Values after ≈ are worked out from the molar mass of the structure shown.
Experiment: Solubility in water of the cyclodextrin derivatives
Type: physicochemical

SMILES | solubility [mg/mL]
NC(CCC(=O)NC[C@H]1O[C@@H]2O[C@H]3[C@H](O)[C@@H](O)[C@@H](O[C@H]4[C@H](O)[C@@H](O)[C@@H](O[C@H]5[C@H](O)[C@@H](O)[C@@H](O[C@H]6[C@H](O)[C@@H](O)[C@@H](O[C@H]7[C@H](O)[C@@H](O)[C@@H](O[C@H]8[C@H](O)[C@@H](O)[C@@H](O[C@H]1[C@H](O)[C@H]2O)O[C@@H]8CO)O[C@@H]7CO)O[C@@H]6CO)O[C@@H]5CO)O[C@@H]4CO)O[C@@H]3CO)C(=O)O (stereo partly drawn) [Example 1(b), mono[N-(4-amino-4-carboxybutyryl)amino]-6-deoxy-β-cyclodextrin] | > 1000
NC(CC(=O)NC[C@H]1O[C@@H]2O[C@H]3[C@H](O)[C@@H](O)[C@@H](O[C@H]4[C@H](O)[C@@H](O)[C@@H](O[C@H]5[C@H](O)[C@@H](O)[C@@H](O[C@H]6[C@H](O)[C@@H](O)[C@@H](O[C@H]7[C@H](O)[C@@H](O)[C@@H](O[C@H]8[C@H](O)[C@@H](O)[C@@H](O[C@H]1[C@H](O)[C@H]2O)O[C@@H]8CO)O[C@@H]7CO)O[C@@H]6CO)O[C@@H]5CO)O[C@@H]4CO)O[C@@H]3CO)C(=O)O (stereo partly drawn) [Example 2(b), mono[N-(3-amino 3-carboxypropionyl)amino]-6-deoxy-β-cyclodextrin] | > 1000
NC(Cc1ccc(OCC(=O)NC[C@H]2O[C@@H]3O[C@H]4[C@H](O)[C@@H](O)[C@@H](O[C@H]5[C@H](O)[C@@H](O)[C@@H](O[C@H]6[C@H](O)[C@@H](O)[C@@H](O[C@H]7[C@H](O)[C@@H](O)[C@@H](O[C@H]8[C@H](O)[C@@H](O)[C@@H](O[C@H]9[C@H](O)[C@@H](O)[C@@H](O[C@H]2[C@H](O)[C@H]3O)O[C@@H]9CO)O[C@@H]8CO)O[C@@H]7CO)O[C@@H]6CO)O[C@@H]5CO)O[C@@H]4CO)cc1)C(=O)O (stereo partly drawn) [Example 3, mono [N-4-(2'-amino 2'-carboxy ethyl) 1-(phenyloxymethylcarbonyl)amino]6-deoxy β-cyclodextrin] | 900 (≈ 664 mM)
